Measurements from ChEMBL document CHEMBL2157905, “Inhibition of therapeutically important polymerases with high affinity bis-intercalators” (Bioorg Med Chem Lett, 2012).
Starred links: 1 amine or outer side, 2 acyl side, 3 side chain; linkers in the order of their positions; H or OH if unused. Positions of bridges follow the written chain, without caps; N, C: chain ends. Non-standard residues stand in square brackets, D forms with d. Residues, ends and D or L forms follow the SMILES beside them. Chains are numbered I, II in the order given. Actinocin(9to1) = Cc1c2oc3c(C)ccc(C(=O)[*:1])c3nc-2c(C(=O)[*:2])c(N)c1=O; NMeV = CN[C@H](C(=O)O)C(C)C; Sar = CNCC(=O)O

How the values were obtained:
[1] = molecular target: T1, Human immunodeficiency virus type 1 reverse transcriptase (Human immunodeficiency virus 1, UniProt Q72547); assay: Inhibition of HIV-1 reverse transcriptase using 0.05 ug/mL of Poly(rA).p(dT) (12 to 18) as substrate after 30 mins by single point PCR assay
[2] = molecular target: T1, Human immunodeficiency virus type 1 reverse transcriptase; assay: Inhibition of HIV-1 reverse transcriptase using Poly(rA).p(dT) (12 to 18) as substrate after 30 mins by single point PCR assay
[3] = Inhibition of partially purified telomerase by fluorescence-based assay
[4] = Inhibition of telomerase in human HeLa cell extract by fluorescence-based assay; assay type: cell-free
[5] = molecular target: T1, Human immunodeficiency virus type 1 reverse transcriptase; assay: Inhibition of HIV-1 reverse transcriptase using 0.5 ug/mL of Poly(rA).p(dT) (12 to 18) as substrate after 30 mins by single point PCR assay
[6] = molecular target: T1, Human immunodeficiency virus type 1 reverse transcriptase; assay: Inhibition of HIV-1 reverse transcriptase using 25 ug/mL of Poly(rA).p(dT) (12 to 18) as substrate after 30 mins by single point PCR assay
[7] = Inhibition of telomerase
[8] = molecular target: T1, Human immunodeficiency virus type 1 reverse transcriptase; assay: Inhibition of HIV-1 reverse transcriptase using 25 ug/mL of Poly(rA).p(dT) (12 to 18) as substrate after 30 mins by single point PCR assay in presence of 340 uM base pair of calf thymus DNA

SMILES	IC50 [1] [nM]	IC50 ([2]; read-out: IC50) [nM]	also measured
NC(=O)[C@H](CCCNC(=O)c1ccc(C[n+]2c(-c3ccccc3)c3cc(N)ccc3c3ccc(N)cc32)cc1)NC(=O)CCCCCNC(=O)[C@@H](N)CCCNC(=O)c1ccc(C[n+]2c(-c3ccccc3)c3cc(N)ccc3c3ccc(N)cc32)cc1	4.9		
O=C(O)c1ccc2cc3ccccc3cc2c1			IC50 [2]: Not Active
NCCCC[C@H](NC(=O)CCNC(=O)C(N)CN)C(N)=O (stereo not given in full)			IC50 [3]: 100 nM; IC50 [4]: 600 nM
O=C(O)c1c2ccccc2nc2ccccc12			IC50 [2]: Not Active
NC(=O)[C@H](CCCCNC(=O)c1ccc(C[n+]2c(-c3ccccc3)c3cc(N)ccc3c3ccc(N)cc32)cc1)NC(=O)CCCNC(=O)[C@@H](N)CCCCNC(=O)c1ccc(C[n+]2c(-c3ccccc3)c3cc(N)ccc3c3ccc(N)cc32)cc1	10.5		
COc1ccc2nc3cc(Cl)ccc3c(NCCCNCCCCNCCCNc3c4ccc(Cl)cc4nc4ccc(OC)cc34)c2c1 [ACRIDINE DIMER]	220		IC50 [5]: 400 nM; IC50 [6]: 12900 nM
NC(=O)C(CNC(=O)c1ccc(C[n+]2c(-c3ccccc3)c3cc(N)ccc3c3ccc(N)cc32)cc1)NC(=O)[C@@H](N)CCCNC(=O)c1ccc(C[n+]2c(-c3ccccc3)c3cc(N)ccc3c3ccc(N)cc32)cc1 (stereo not given in full)	22.3		
NC(=O)[C@H](CCCNC(=O)c1ccc(C[n+]2c(-c3ccccc3)c3cc(N)ccc3c3ccc(N)cc32)cc1)NC(=O)CCNC(=O)C(N)CNC(=O)c1ccc(C[n+]2c(-c3ccccc3)c3cc(N)ccc3c3ccc(N)cc32)cc1 (stereo not given in full)	9.2		
CC[N+](C)(CC)CCC[n+]1c(-c2ccccc2)c2cc(N)ccc2c2ccc(N)cc21 [PROPIDIUM]		3000	
CN(C)c1ccc2cc3ccc(N(C)C)cc3nc2c1 [ACRIDINE ORANGE]		200000	
Cc1c2oc3c(C)c(N)cc(C(=O)N[C@@H]4C(=O)N[C@H](C(C)C)C(=O)N5CCC[C@H]5C(=O)N(C)CC(=O)N(C)[C@@H](C(C)C)C(=O)O[C@@H]4C)c3nc-2c(C(=O)N[C@@H]2C(=O)N[C@H](C(C)C)C(=O)N3CCC[C@H]3C(=O)N(C)CC(=O)N(C)[C@@H](C(C)C)C(=O)O[C@@H]2C)c(N)c1=O		93000	
Cc1c2oc3c(C)ccc(C(=O)N[C@@H]4C(=O)N[C@H](C(C)C)C(=O)N5CCC[C@H]5C(=O)N(C)CC(=O)N(C)[C@@H](C(C)C)C(=O)O[C@@H]4C)c3nc-2c(C(=O)N[C@@H]2C(=O)N[C@H](C(C)C)C(=O)N3CCC[C@H]3C(=O)N(C)CC(=O)N(C)[C@@H](C(C)C)C(=O)O[C@@H]2C)c(N)c1=O [DACTINOMYCIN] (I: T[dV]P[Sar][NMeV] / II: T[dV]P[Sar][NMeV]; ester I:1-I:C, II:1-II:C; linker I:N-II:N via Actinocin(9to1))		270000	
CCOc1ccc2nc3cc(N)ccc3c(N)c2c1		20000	
COc1cccc2c1C(=O)c1c(O)c3c(c(O)c1C2=O)C[C@@](O)(C(C)=O)C[C@@H]3O[C@H]1C[C@H](N)[C@H](O)[C@H](C)O1 [DAUNORUBICIN]		139000	
COc1ccc2nc3cc(Cl)ccc3c(N)c2c1			IC50 [2]: Not Active
O=C(O)c1cccc2cc3ccccc3cc12			IC50 [2]: Not Active
Cc1c2ccncc2c(C)c2c1[nH]c1ccccc12 [ELLIPTECINE]		182000	
CC[n+]1c(-c2ccccc2)c2cc(N)ccc2c2ccc(N)cc21 [HOMIDIUM]	2100		IC50 [7]: 3300 nM; IC50 [5]: 1800 nM; IC50 [6]: 2200 nM
Nc1ccc2c(c1)c(-c1ccccc1)[n+](CCCNCCNCCC[n+]1c(-c3ccccc3)c3cc(N)ccc3c3ccc(N)cc31)c1cc(N)ccc21	10.8		IC50 [8]: 8500 nM; IC50 [6]: 2300 nM
Cc1cc2cc3cc(C)c(N)cc3nc2cc1N [ACRIDINE YELLOW]		32000	
NC(=O)C(CNC(=O)c1ccc(C[n+]2c(-c3ccccc3)c3cc(N)ccc3c3ccc(N)cc32)cc1)NC(=O)CCCCCNC(=O)[C@@H](N)CCCCNC(=O)c1ccc(C[n+]2c(-c3ccccc3)c3cc(N)ccc3c3ccc(N)cc32)cc1 (stereo not given in full)	30.7		
CC[n+]1c(-c2ccccc2)c2cc(N)ccc2c2ccc(N)cc21 [HOMIDIUM BROMIDE]		2000	
